Data reported in patent US5405873A, “Substituted acetamide derivatives” (Banyu Pharmaceutical Co., Ltd., priority 1992, dated 1995).

What follows are molecules tested on ACAT (assay: ACAT inhibitory activity (rabbit liver microsomal fraction)). Conditions: [1-14C]oleyl-CoA and exogenous cholesterol.
Type: biochemical, Japanese-White Rabbit
Method: Enzyme specimen ACAT is prepared from liver microsomal fraction of Japanese-White Rabbit in accordance with the method described in Smith et al., Clinica Chimica Acta, 158, 271 (1986). The ACAT activity is determined by measuring the amount of labeled cholesterol esters from [1-^14 C]oleyl-CoA and exogenous cholesterol also according to the method of Smith et al., ibid. Thus, inhibition rates (%) of the compounds of the present invention against ACAT at a concentration of 0.3 μM are shown in the following table, together with the results of Melinamide (N-(α-methylbenzyl)linoleamide) and YM-17E (1,3-bis[[1-cycloheptyl-3-(p-dimethylaminophenyl)ureido]methyl]-benzene dihydrochloride), as reference compounds, measured at the same time.

Row | SMILES | Inhibition Rate at 0.3 μM
1 | CCCCCN(CCCC#CC(C)(C)C)CCNC(=O)CSc1cccc2ccccc12 [Example 3, N-[2-[N'-Pentyl-(6,6-dimethyl-4-heptynyl)amino]ethyl]-(1-naphthylthio)acetamide] | 68%
2 | CC(C)CCCN(CC#CC#CC(C)(C)C)CCNC(=O)CSc1cccc2ccccc12 [Example 36, N-[2-[N'-(4-Methylpentyl)-(6,6-dimethyl-2,4-heptadiynyl)amino]ethyl]-(1-naphthylthio)acetamide] | 75%
3 | CCCCCN(CC#CC#CC(C)(C)C)CCNC(=O)C[S+]([O-])c1cccc2ccccc12 (stereo not shown) [Example 29, N-[2-[N'-Pentyl-(6,6-dimethyl-2,4-heptadiynyl)amino]ethyl]-(1-naphthylsulfinyl)acetamide] | 70%
4 | CCCCCN(CC#CC#CC(C)(C)C)CCNC(=O)CSc1cccc2ccccc12 [Example 2, N-[2-[N'-Pentyl-(6,6-dimethyl-2,4-heptadiynyl)amino]ethyl]-(1-naphthylthio)acetamide] | 76%
5 | CCCCCN(C/C=C/C#CC(C)(C)C)CCNC(=O)CSc1cccc2ccccc12 [Example 1, (E)-N-[2-[N'-Pentyl-(6,6-dimethyl-2-hepten-4-ynyl)amino]ethyl]-(1-naphthylthio)acetamide] | 70%
6 | CCCCCN(CC#CC#CC(C)(C)C)CCNC(=O)CSc1ccc2ccccc2c1 [Example 4, N-[2-[N'-Pentyl-(6,6-dimethyl-2,4-heptadiynyl)amino]ethyl]-(2-napthylthio)acetamide] | 78%
7 | CCCCCN(CC#CC#CC(C)(C)C)CCNC(=O)CSc1c2ccccc2cc2ccccc12 [Example 26, N-[2-[N'-Pentyl-(6,6-dimethyl-2,4-heptadiynyl)amino]ethyl]-(9-anthrylthio)acetamide] | 66%
8 | CCCCCN(CC#CC#CC(C)(C)C)CCNC(=O)CS(=O)(=O)c1cccc2ccccc12 [Example 30, N-[2-[N'-Pentyl-(6,6-dimethyl-2,4-heptadiynyl)amino]ethyl]-(1-naphthylsulfonyl)acetamide] | 75%
9 | CCCCCN(CC#CC#CC(C)(C)C)CCNC(=O)CSc1c(C)cccc1C [Example 11, N-[2-[N'-Pentyl-(6,6-dimethyl-2,4-heptadiynyl)amino]ethyl]-(2,6-dimethylphenylthio)acetamide] | 87%
10 | CN(C)c1ccc(NC(=O)N(Cc2cccc(CN(C(=O)Nc3ccc(N(C)C)cc3)C3CCCCCC3)c2)C2CCCCCC2)cc1.Cl.Cl [YM-17E, 1,3-bis[[1-cycloheptyl-3-(p-dimethylaminophenyl)ureido]methyl]-benzene dihydrochloride, reference compound] | 50%
11 | CCCCN(CC#CC#CC(C)(C)C)CCNC(=O)CSc1cccc2ccccc12 [Example 34, N-[2-[N'-Butyl-(6,6-dimethyl-2,4-heptadiynyl)amino]ethyl]-(1-naphthylthio)acetamide] | 61%
12 | CCCCC/C=C\C/C=C\CCCCCCCC(=O)NC(C)c1ccccc1 (stereo not drawn) [Melinamide, N-(α-methylbenzyl)linoleamide, reference compound] | 15%
13 | CCCCCN(CC#CC#CC(C)(C)C)CCNC(=O)CSc1ccc(C)c(C)c1 [Example 10, N-[2-[N'-Pentyl-(6,6-dimethyl-2,4-heptadiynyl)amino]ethyl]-(3,4-dimethylphenylthio)acetamide] | 84%
14 | CCCCCN(CC#CC#CC(C)(C)C)CCNC(=O)CSc1ccc2oc3ccccc3c2c1 [Example 24, N-[2-[N'-Pentyl-(6,6-dimethyl-2,4-heptadiynyl)amino]ethyl]-(2-dibenzofuranylthio)acetamide] | 64%

These molecules were tested on absorption of cholesterol (assay: Cholesterol absorption inhibitory activity in rat). Conditions: 100 mg/kg oral; [3H] cholesterol emulsion; serum radioactivity 4 hours after administration.
Type: in vivo, Sprague-Dawley rats
Method: Cholesterol absorption inhibitory activity is determined by the method described in Fukushima et al., Journal of Atherosclerosis Research, 10, 403 (1969).
That is, Sprague-Dawley rats of 7 weeks age weighing 200 to 250 g are divided into groups at random and fed for 7 days with free access to diet. Then, the compound of the present invention and [^3 H] cholesterol emulsion (suspension of 6.96 mg of cholesterol and 177 mg of triolein in 0.8 ml of 6.8% skimmed milk aqueous solution) prepared into a dose indicated are forcedly given orally (Experiment Group).
As a control group, the solvent used to suspend the compound of the present invention instead of the compound of the present invention in Experiment Group and [^3 H] cholesterol emulsion are forcedly administered orally.
Four hours after administration, blood is collected from the tail. The cholesterol absorption inhibitory activity of the compound is determined in terms of the radiation activity of [^3 H) observed in serum by comparing between the control group and the experiment group. Inhibition rate (%) at 100 mg/kg is calculated and the results are shown in the following table together with the result of YM-17E used as a reference compound.

Row | SMILES | Inhibition Rate at 100 mg/kg
15 | CN(C)c1ccc(NC(=O)N(Cc2cccc(CN(C(=O)Nc3ccc(N(C)C)cc3)C3CCCCCC3)c2)C2CCCCCC2)cc1.Cl.Cl [YM-17E, 1,3-bis[[1-cycloheptyl-3-(p-dimethylaminophenyl)ureido]methyl]-benzene dihydrochloride, reference compound] | 63%
16 | CCCCCN(C/C=C/C#CC(C)(C)C)CCNC(=O)CSc1ccc2ccccc2c1 [Example 6, (E)-N-[2-[N'-Pentyl-(6,6-dimethyl-2-hepten-4-ynyl)amino]ethyl]-(2-naphthylthio)acetamide] | 73%
